Experimental data reported in PubChem BioAssay (NCI).
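48-hour exposure; five concentrations; linearly interpolated endpoints. At the GI50, growth is halved. TGI: concentration producing complete growth inhibition.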 Where a SMILES comes first, the peptide text is derived from it. [ ]: non-standard residue; d: D form. The star is where a group is joined. Decanoyl = CCCCCCCCCC(=O)*; Leu(ol) = CC(C)C[C@H](N)CO; Iva = CC[C@](C)(N)C(=O)O; Aib = CC(C)(N)C(=O)O

Columns and labels:
Assay in all cases: inhibition of tumour cell growth, NCI panel, 48 h
[1] = test system: BT-549 breast
[2] = test system: ACHN renal
[3] = test system: SK-OV-3 ovarian
[4] = test system: MALME-3M melanoma
[5] = test system: RPMI-8226 leukemia
[6] = test system: LOX IMVI melanoma
[7] = test system: SW-620 colon
[8] = test system: MOLT-4 leukemia
[9] = test system: MDA-MB-231 breast
[10] = test system: A498 renal
[11] = test system: PC-3 prostate
[12] = test system: OVCAR-8 ovarian
[13] = test system: KM12 colon
[14] = test system: RXF 393 renal
[15] = test system: SK-MEL-5 melanoma
[16] = test system: COLO 205 colon
[17] = test system: EKVX NSCLC
[18] = test system: 786-0 renal
[19] = test system: MDA-MB-435
[20] = test system: UACC-62 melanoma
[21] = test system: NCI-H226 lung
[22] = test system: HOP-92 NSCLC
[23] = test system: IGROV1 ovarian
[24] = test system: HCT-15 colon
[25] = test system: MCF7 breast
[26] = test system: OVCAR-3 ovarian
[27] = test system: DU-145 prostate
[28] = test system: NCI/ADR-RES ovarian

Structure (SMILES): CCCCCCCCCC(=O)N[C@@](C)(CC)C(=O)N1CCC[C@H]1C(=O)N[C@@H](CC(C)C)C(=O)N[C@@](C)(CC)C(=O)N[C@@H](CCC(N)=O)C(=O)N[C@H](CCC(N)=O)C(=O)NC(C)(C)C(=O)NC(C)(C)C(=O)N[C@@H](CCC(N)=O)C(=O)N[C@H](CC(C)C)C(=O)N[C@H](CO)CC(C)C (Decanoyl-[Iva]PL[Iva]Q[dQ][Aib][Aib]Q[dL][Leu(ol)])
- GI50 [1]: 2.08 µM
- TGI [1]: 4.11 µM
- GI50 [2]: 8.34 µM
- TGI [2]: 20.8 µM
- GI50 [3]: 5.03 µM
- TGI [3]: 18.9 µM
- GI50 [4]: 2.12 µM
- TGI [4]: 4.95 µM
- GI50 [5]: 2.33 µM
- TGI [5]: 5.06 µM
- GI50 [6]: 1.97 µM
- TGI [6]: 4.26 µM
- GI50 [7]: 4.05 µM
- TGI [7]: 15.2 µM
- GI50 [8]: 2.09 µM
- TGI [8]: 4.43 µM
- GI50 [9]: 2.04 µM
- TGI [9]: 4.71 µM
- GI50 [10]: 2.75 µM
- TGI [10]: 7.36 µM
- GI50 [11]: 1.79 µM
- TGI [11]: 3.51 µM
- GI50 [12]: 1.91 µM
- TGI [12]: 4.17 µM
- GI50 [13]: 2.03 µM
- TGI [13]: 4.37 µM
- GI50 [14]: 1.81 µM
- TGI [14]: 3.63 µM
- GI50 [15]: 1.88 µM
- TGI [15]: 3.56 µM
- GI50 [16]: 1.91 µM
- TGI [16]: 3.8 µM
- GI50 [17]: 2.2 µM
- TGI [17]: 5.47 µM
- GI50 [18]: 2.48 µM
- TGI [18]: 6.48 µM
- GI50 [19]: 1.86 µM
- TGI [19]: 3.6 µM
- GI50 [20]: 1.99 µM
- TGI [20]: 4.91 µM
- GI50 [21]: 2.21 µM
- TGI [21]: 5.2 µM
- GI50 [22]: 1.34 µM
- TGI [22]: 4.6 µM
- GI50 [23]: 4.05 µM
- TGI [23]: 14.8 µM
- GI50 [24]: 7.72 µM
- TGI [24]: 22.5 µM
- GI50 [25]: 2.04 µM
- TGI [25]: 4.38 µM
- GI50 [26]: 7.61 µM
- TGI [26]: 22.2 µM
- GI50 [27]: 1.96 µM
- TGI [27]: 3.67 µM
- GI50 [28]: 5.59 µM
- TGI [28]: 19.6 µM
